Assay results reported in paper PMC4685510, “A Cell Biologist’s Field Guide to Aurora Kinase Inhibitors” (Frontiers in Oncology, 2015).
Entries after “also recorded” stand apart in the source; their conditions may differ. Read-outs that look alike come from different tables or passages of the source. Each block holds one compound with its values, some of them ahead of it.

How the values were obtained:
RPE1 cells [1] = assay: Cytokinesis assay (live imaging, YFP-α-tubulin; H2B-RFP), RPE1; format: cell-based; conditions: Homo sapiens
[2] = test system: pH3(Ser 28) in U2OS cells; assay: Substrate phosphorylation immunofluorescence assay, pH3(Ser 28), U2OS; format: cell-based, human; conditions: Homo sapiens, read-out: pHistone H3 (Ser28) IC50
[3] = biological target: 363 human kinases (including Aurora A/B/C) (Homo sapiens, UniProt Q16539); assay: biochemical; format: biochemical; conditions: read-out: % Enzyme Activity (relative to DMSO controls)
[4] = test system: 363 human kinases (including Aurora A/B/C); assay: biochemical; format: biochemical
[5] = test system: pAuroraA(Thr 288) in HeLa cells; assay: Immunoblotting of Aurora A activation loop phosphorylation; format: cell-based, human; conditions: immunoblot
[6] = test system: pLATS2(Ser 83) in U2OS cells; assay: Substrate phosphorylation immunofluorescence assay, pLATS2(Ser 83), U2OS; format: cell-based, human; conditions: 8 h inhibitor treatment
Protocol: (§1) We employed the protocol described in Figure 3D to analyze substrate phosphorylation in HeLa cells following treatment with all 10 inhibitors in dose–response. Asynchronous cells were incubated with vehicle (DMSO) or different inhibitor doses for 8 h and then fixed and labeled with a mixture of three antibodies directed against pLATS2(Ser 83), pH3(Ser 28), and MPM2 [which detects mitotic phosphoepitopes; ([86])]. While both the anti-pLATS2(Ser 83) and MPM2 antibodies are mouse monoclonals, they are of different IgG subclasses [IgG2b for anti-pLATS2(Ser 83) and IgG1 for MPM2], and can thus be detected with subclass-specific secondary antibodies (Table S3 in Supplementary Material).
(§2) In control mitotic cells, pLATS2(Ser 83) is concentrated in foci around the spindle poles (Figure 3E; top row – green arrow) and pH3(Ser 28) is on the mitotic chromatin (Figure 3E; top row – red arrow). Selective kinase inhibition should result in loss of one signal but not the other, as illustrated by the example images for specific conditions in Figure 3E (middle and bottom rows). Cells were imaged in 4 channels to visualize pLATS2(Ser 83), pH3(Ser 28), MPM2, and DNA (labeled with Hoechst) and mitotic cells were segmented based on their bright MPM2 labeling (Figure 3E). Intensity and area thresholds were set to select the pLATS2(Ser 83) foci and the pH3(Ser 28)-labeled chromatin in their respective channels in DMSO-treated control cells and the same thresholds were applied for inhibitor-treated cells. The mean fluorescence intensity per pixel was measured to assess the activities of the kinases targeting these two substrate phosphorylation sites.
(§3) Twelve thousand HeLa cells, 10,000 U2OS cells, or 8,000 RPE1 cells were seeded into 96-well glass-bottom Sensoplates (Greiner) 16 h before inhibitor addition. Prior to seeding, the glass-bottom plates were coated with poly-L-lysine (Sigma). […] After 8 h cells were fixed with 4% PFA for 20 min at room temperature. The fixed cells were washed with PBS. For immunostaining, cells were permeabilized and blocked with PBS containing 10% normal donkey serum (Jackson ImmunoResearch) and 0.1% Triton-X100 for 1 h at room temperature. Primary antibodies against phospho-LATS2 (Ser 83), phospho-histone H3(Ser 28), and anti-phospho-MPM2 (see Table S3 in Supplementary Material) were incubated for 1 h at room temperature. […] Cells were then washed twice with PBS containing 0.1% Triton-X100. Image acquisition in four channels was performed using a CV7000 spinning disk confocal system (Yokogawa Electric Corporation) with a 40 × 0.95 NA U-PlanApo objective and 2560 × 2160 pixel sCMOS camera. […] Fifty fields per well were imaged with quadruplicate wells for each condition. Image analysis was done using the CV7000 image analysis software (Yokogawa Electric Corporation). Between 100 and 1,000 mitotic cells per condition were segmented applying object identification parameters to select for bright MPM2 labeling. Using a nuclear identifier protocol, minimum intensity thresholds were set for pLATS2(Ser 83) and the pH3(Ser 28) signals, and the resulting identified objects were eroded, dilated, and filtered for size by user-defined thresholds. For only the MPM2-positive mitotic cells, the mean fluorescence intensity of the identified pLATS2(Ser 83) and pH3(Ser 28) objects was measured, and the average intensity per cell per well was calculated. The same thresholds were applied for all of the inhibitor-treated samples, which were processed, imaged, and analyzed in parallel with control DMSO-treated cells. Data were fit using a four-parameter, variable slope fit in Prism (GraphPad). Primary and secondary antibody dilutions can be found in Table S3 in Supplementary Material.

[7] = test system: pH3(Ser 28) in RPE1 cells; assay: Substrate phosphorylation immunofluorescence assay, pH3(Ser 28), RPE1; format: cell-based, human; conditions: Homo sapiens, read-out: pHistone H3 (Ser28) IC50
[8] = test system: pH3(Ser 28) in HeLa cells; assay: Substrate phosphorylation immunofluorescence assay, pH3(Ser 28), HeLa; format: cell-based, human; conditions: for IC50: Homo sapiens, 8 h, read-out: pHistone H3 (Ser28) IC50
[9] = test system: HeLa, RPE1, and U2OS cells; assay: Cellular proliferation analysis (ATPLite, 24 h); conditions: HeLa, RPE1, U2OS; 24 h (Figure 4D, Figure S2B)
U2OS cells [10] = assay: Cytokinesis assay (live imaging, YFP-α-tubulin; H2B-RFP), U2OS; format: cell-based; conditions: Homo sapiens, read-out: Cytokinesis IC50
[11] = test system: pAuroraB(Thr 232), pH3(Ser 10), pH3(Ser 28) in HeLa cells; assay: Immunoblotting of pAuroraB(Thr 232), pH3(Ser 28) and pH3(Ser 10); format: cell-based, human; conditions: immunoblot, dose–response
[12] = test system: pLATS2(Ser 83) in RPE1 cells; assay: Substrate phosphorylation immunofluorescence assay, pLATS2(Ser 83), RPE1; format: cell-based, human; conditions: RPE1, 8 h inhibitor treatment
Protocol: as §1, §2, §3

[13] = test system: pLATS2(Ser 83) in HeLa cells; assay: Substrate phosphorylation immunofluorescence assay, pLATS2(Ser 83), HeLa; format: cell-based, human; conditions: HeLa
Protocol: as §1, §2, §3

HeLa cells [14] = assay: Cytokinesis assay (live imaging, YFP-α-tubulin; H2B-RFP), HeLa; format: cell-based, human; conditions: for IC50: Homo sapiens, HeLa, read-out: Cytokinesis IC50
[15] = biological target: T1, full-length human Aurora A (Homo sapiens, UniProt O14965); assay: Aurora A kinase assay (ADP-Glo, Kemptide substrate); conditions: Aurora A Ki Mean ± SD, [ATP] = Km(ATP) (35 μM); Ki calculated from IC50 with tight-binding equation
T1 sequence (O14965 1-403): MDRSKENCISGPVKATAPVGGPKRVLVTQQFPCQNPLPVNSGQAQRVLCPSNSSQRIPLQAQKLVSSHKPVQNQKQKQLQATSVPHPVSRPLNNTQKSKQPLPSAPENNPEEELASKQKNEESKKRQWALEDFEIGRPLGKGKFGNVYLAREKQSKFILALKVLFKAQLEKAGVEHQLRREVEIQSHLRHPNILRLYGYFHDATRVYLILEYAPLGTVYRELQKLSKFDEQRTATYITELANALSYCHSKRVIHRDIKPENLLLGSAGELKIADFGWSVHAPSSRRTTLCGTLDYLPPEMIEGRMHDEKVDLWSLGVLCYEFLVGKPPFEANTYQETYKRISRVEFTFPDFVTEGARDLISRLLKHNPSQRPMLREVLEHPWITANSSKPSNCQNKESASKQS

Aurora B/INCENP^783–918 = biological target: T2, Aurora B/INCENP^783–918 (Homo sapiens, UniProt Q96GD4); assay: Aurora B/INCENP^783–918 kinase assay (ADP-Glo); format: biochemical
T2 construct: purchased SignalChem

Aurora A-TPX2 = conditions: cited from earlier work
Aurora A/TPX2^1–43 = biological target: T3, Aurora A/TPX2^1–43 (Homo sapiens, UniProt O14965); assay: Aurora A/TPX2^1–43 kinase assay (ADP-Glo); conditions: Aurora A-TPX2^1–43 Ki Mean ± SD, [ATP] = Km(ATP) (3 μM); 40 nM TPX2^1–43
T3 sequence (O14965 1-403): T1 sequence (O14965 1-403)
T3 sequence (Q9ULW0 1-43 partner limits assumed): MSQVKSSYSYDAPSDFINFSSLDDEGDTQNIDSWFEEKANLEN

Aurora B = conditions: read-out: Aurora B IC50 (Published), cited from earlier work
HeLa cells [16] = assay: G2 duration live imaging assay (GFP-PCNA; H2B-RFP), HeLa; format: cell-based, human; conditions: Homo sapiens, read-out: G2/M (G2 duration) IC50
Aurora A = conditions: read-out: Aurora A IC50 (Published), cited from earlier work
U2OS cells [17] = assay: G2 duration live imaging assay (GFP-PCNA; H2B-RFP), U2OS; format: cell-based; conditions: Homo sapiens, read-out: G2/M (G2 duration) IC50
RPE1 cells [18] = assay: G2 duration live imaging assay (GFP-PCNA; H2B-RFP), RPE1; format: cell-based; conditions: Homo sapiens, RPE-1; RPE1; read-out: G2/M (G2 duration) IC50
[19] = fold difference in potency calculated by dividing Ki values, for GSK1070916 the Aurora B Ki of ref 61 was used

T2 sequence (Q96GD4 whole entry): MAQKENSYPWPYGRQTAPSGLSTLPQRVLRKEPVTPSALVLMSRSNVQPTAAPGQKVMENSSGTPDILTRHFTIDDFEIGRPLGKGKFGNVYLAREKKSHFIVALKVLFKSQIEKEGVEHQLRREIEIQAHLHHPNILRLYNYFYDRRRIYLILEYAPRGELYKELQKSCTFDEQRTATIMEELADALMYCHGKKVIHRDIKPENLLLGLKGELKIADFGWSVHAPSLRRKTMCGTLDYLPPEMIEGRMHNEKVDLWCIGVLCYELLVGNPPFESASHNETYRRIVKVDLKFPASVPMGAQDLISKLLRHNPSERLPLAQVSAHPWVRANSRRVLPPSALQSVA
T2 sequence (Q9NQS7 783-918 partner limits assumed): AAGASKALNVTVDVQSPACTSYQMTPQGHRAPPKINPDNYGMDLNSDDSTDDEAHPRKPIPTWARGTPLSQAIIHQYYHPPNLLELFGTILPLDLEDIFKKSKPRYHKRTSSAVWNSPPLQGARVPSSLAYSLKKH
Chain of 363 human kinases (including Aurora A/B/C) (Homo sapiens, UniProt Q16539) (Q16539 whole entry): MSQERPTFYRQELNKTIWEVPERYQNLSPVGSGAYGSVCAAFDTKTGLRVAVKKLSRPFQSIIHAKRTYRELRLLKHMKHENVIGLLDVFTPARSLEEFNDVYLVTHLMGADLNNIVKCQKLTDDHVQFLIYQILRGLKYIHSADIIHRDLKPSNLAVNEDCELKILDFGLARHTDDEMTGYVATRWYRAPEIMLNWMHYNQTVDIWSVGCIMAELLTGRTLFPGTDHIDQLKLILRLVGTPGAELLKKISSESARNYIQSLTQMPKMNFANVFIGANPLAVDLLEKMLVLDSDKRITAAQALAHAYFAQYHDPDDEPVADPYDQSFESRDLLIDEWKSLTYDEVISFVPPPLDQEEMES

SMILES: CCN(CCO)CCCOc1ccc2c(Nc3cc(CC(=O)Nc4cccc(F)c4)[nH]n3)ncnc2c1 [AZD1152-HQPA]
- IC50 (RPE1 cells [1]; RPE-1, read-out: Cytokinesis IC50): 23 nM
- IC50 ([2]; 8 h): 12 nM
- remaining activity at 0.1 µM [3]: 104%
- Kinases inhibited ≥65% of control [4]: Aurora B was the only enzyme
- Effect on Aurora A activity (pAuroraA Thr 288) ([5]; 300 nM (Figure S6)): did not
- Effect on pAuroraA(Thr 288) ([5]; dose–response): did not affect
- pLATS2 (Ser83) IC50 [6]: NE@200 nM
- IC50 ([7]; RPE-1, 8 h): 25 nM
- Concentration completely eliminating pH3(Ser 28) labeling without affecting pLATS2(Ser 83) labeling [8]: < 100 nM
- IC50 [8]: 5 nM
- Toxicity / cytotoxicity (cellular proliferation) [9]: not observed
- IC50 (U2OS cells [10]): 20 nM
- Effect on pH3(Ser 10), pH3(Ser 28), pAuroraB(Thr 232) [11]: eliminated
- pLATS2 (Ser83) IC50 [12]: NE@200 nM
- pLATS2 (Ser83) IC50 ([13]; 8 h inhibitor treatment): NE (100 nM); also recorded: NE@100 nM
- IC50 (HeLa cells [14]): 4 nM

- Ki [15]: 1.21 ± 0.14 nM
- Ki (Aurora B/INCENP^783–918; Aurora B-INCENP^783–918 Ki Mean ± SD, [ATP] = Km(ATP) (10 μM)): 0.03 ± 0.014 nM
- Selectivity ratio Aur B-INCENP^783–918 versus Aur A (Aurora B/INCENP^783–918; [19]): 40.2 fold
- Selectivity ratio Aur B-INCENP^783–918 versus Aur A-TPX2^1–43 (Aurora B/INCENP^783–918; [19]): 45.3 fold
- Ki (Aurora A/TPX2^1–43): 1.37 ± 0.12 nM
- IC50 ([8]; 8 h inhibitor treatment): 14 nM
- IC50 (U2OS cells [10]; cytokinesis failure): 17 nM
- pLATS2 (Ser83) IC50 ([13]; 8 h inhibitor treatment): NE (100 nM); also recorded: NE@100 nM
- IC50 (HeLa cells [14]; cytokinesis failure): 14 nM
SMILES: CCS(=O)(=O)Nc1ccc2c(c1)/C(=C(/Nc1ccc(CN3CCCCC3)cc1)c1ccccc1)C(=O)N2 [Hesperadin]
- IC50 (RPE1 cells [1]; RPE-1, RPE1, cytokinesis failure, read-out: Cytokinesis IC50): 47 nM
- IC50 (Aurora A-TPX2; ref 121, read-out: Aurora A-TPX2 IC50 (Published)): 11 nM
- Concentration completely eliminating pH3(Ser 28) labeling without affecting pLATS2(Ser 83) labeling [8]: < 100 nM
- IC50 (Aurora B; ref 45): 250 nM
- IC50 (Aurora B; ref 121): 3 nM
- Stability under long-term live imaging conditions (HeLa cells [14]; ability to block cytokesis over time in live imaging, cell line not specified): appeared to be unstable under live imaging conditions; also recorded: appears to be unstable under long-term live imaging conditions

SMILES: O=C(O)c1ccc(Nc2ncc3c(n2)-c2ccc(Cl)cc2C(c2c(F)cccc2F)=NC3)cc1 [MLN8054]
- IC50 ([2]; 8 h inhibitor treatment): 3300 nM
- Ki (Aurora A-TPX2; ref 71, read-out: Aurora A-TPX2 Ki (Published)): 3.3 nM
- IC50 ([6]; Homo sapiens, read-out: pLATS2 (Ser83) IC50): 800 nM
- IC50 ([7]; RPE-1, RPE1, 8 h inhibitor treatment): 880 nM
- IC50 (HeLa cells [16]): 736 nM
- IC50 ([8]; 8 h inhibitor treatment): 2900 nM
- IC50 (U2OS cells [17]): 957 nM
- IC50 ([12]; Homo sapiens, RPE-1, read-out: pLATS2 (Ser83) IC50): 720 nM
- IC50 ([13]; Homo sapiens, 8 h, 8 h inhibitor treatment, read-out: pLATS2 (Ser83) IC50): 290 nM
- IC50 (RPE1 cells [18]): 500 nM
